This note sets out measurements from ChEMBL document CHEMBL1141967, “N-Sulfonyl hydroxamate derivatives as inhibitors of class II fructose-1,6-diphosphate aldolase” (Bioorg Med Chem Lett, 2005).

The target of experiment [1] is T1, Fructose-bisphosphate aldolase class 2 (Escherichia coli K-12, UniProt P0AB71).
T1 sequence (P0AB71 whole entry): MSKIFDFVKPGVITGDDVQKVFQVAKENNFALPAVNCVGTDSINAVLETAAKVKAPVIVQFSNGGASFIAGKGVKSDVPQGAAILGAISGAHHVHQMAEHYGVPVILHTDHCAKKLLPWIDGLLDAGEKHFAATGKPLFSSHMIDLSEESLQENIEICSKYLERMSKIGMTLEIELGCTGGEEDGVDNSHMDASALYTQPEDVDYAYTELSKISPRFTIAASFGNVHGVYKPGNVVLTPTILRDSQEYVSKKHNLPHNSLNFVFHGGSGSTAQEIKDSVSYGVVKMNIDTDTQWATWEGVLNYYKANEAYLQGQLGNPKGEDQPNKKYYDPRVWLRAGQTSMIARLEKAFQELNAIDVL
As to the kind of experiment: Inhibitory activity against class II FBP aldolase from Escherichia coli.

Experiment [2] addresses T2, Fructose-bisphosphate aldolase A (Oryctolagus cuniculus, UniProt P00883).
T2 sequence (P00883 whole entry): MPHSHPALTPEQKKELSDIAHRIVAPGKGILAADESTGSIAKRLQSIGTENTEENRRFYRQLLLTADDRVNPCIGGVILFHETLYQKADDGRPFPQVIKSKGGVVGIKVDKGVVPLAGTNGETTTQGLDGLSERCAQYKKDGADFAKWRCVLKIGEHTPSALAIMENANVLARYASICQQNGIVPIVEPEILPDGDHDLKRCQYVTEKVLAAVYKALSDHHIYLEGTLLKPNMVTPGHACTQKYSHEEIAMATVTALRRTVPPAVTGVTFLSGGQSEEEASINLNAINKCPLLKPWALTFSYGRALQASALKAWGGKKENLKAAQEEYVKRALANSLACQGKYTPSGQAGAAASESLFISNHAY
As to the kind of experiment: Inhibitory activity against class I FBP aldolase from rabbit.

Turning to `CS(=O)(=O)NC(=O)CCP(=O)(O)O`, the inhibitory constant (Ki) in experiment [1] and in experiment [2] was above 10000 µM each time.

Consider `CS(=O)(=O)NC(=O)COP(=O)(O)O`, for which the Ki in experiment [1] was 350 µM; in experiment [2], above 10000 µM.

On to `O=C(COP(=O)(O)O)NO` [PHOSPHOGLYCOLOHYDROXAMATE], for which the Ki worked out at 0.01 µM in experiment [1] and 1 µM in experiment [2].

For the compound `O=C(CCP(=O)(O)O)NO`, the Ki in experiment [1] and in experiment [2] was above 1000 µM throughout.

With `O=C(COP(=O)(O)O)NS(=O)(=O)c1ccccc1`, the figures for the Ki in experiment [1] and in experiment [2] were 100 µM and above 10000 µM, respectively.

Regarding `O=C(CCP(=O)(O)O)NS(=O)(=O)c1ccccc1`, the Ki in experiment [1] and in experiment [2] was above 10000 µM in each case.
